# Experimental data reported in patent US20250120967A1, “TYROSINE KINASES INHIBITORS AND USES THEREOF” (GREAT NOVEL THERAPEUTICS BIOTECH & MEDICALS CORPORATION, priority 2023, published 2025).
# Read-outs that look alike come from different tables or passages of the source.
# Columns and labels:
# FLT1 (VEGFR1) = FLT1 (VEGFR1) (Homo sapiens, UniProt P17948); assay: Tyrosine kinase inhibition assay; type: biochemical; details: single concentration 1.0 μM, read-out: percent inhibition
# Description: (§1) Tyrosine kinase inhibition assays were performed at ThermoFisher Life Technologies (Madison, WI, USA) using standard protocols (SelectScreen Biochemical Profiling Service, Thermo Fisher Scientific). ATP concentrations used were at the apparent Km. Test compounds were screened in 1% dimethylsulffoxide (DMSO) (final concentration) in the well. For 10-point titrations, 3-fold serial dilutions were conducted from the starting concentration of […]. All Peptide/Kinase Mixtures were diluted to a 2× working concentration in the appropriate Kinase Buffer. All ATP Solutions were diluted to a 4× working concentration in Kinase Buffer (50 mM HEPES pH 7.5, 0.01% BRIJ-35, 10 mM MgCl2, 1 mM EGTA). The apparent ATP Km was previously determined using a Z′-LYTE assay. The Development Reagent was diluted in Development Buffer.
# (§2) The inhibition activities of compounds were determined in biochemical assays using single concentration (1.0 μM) measurements. The results were provided as percent inhibition values. […] 99 different tyrosine kinases were used.
# EGFR (ErbB1) = EGFR (ErbB1) (Homo sapiens, UniProt P00533); assay: Tyrosine kinase inhibition assay; type: biochemical; details: single concentration 1.0 μM, read-out: percent inhibition
# Description: as §1, §2
# MDA-MB-231 cells = assay: In vitro cytotoxicity assay (MTT, 72 h); type: cell-based; details: Homo sapiens, growth inhibition
# Description: (§3) Six different cell lines were used, including human breast cancer cell lines MDA-MB-231 (6×10^3) and MDA-MB-453 (2.4×10^4), human colorectal cell line SW48 (2.4×10^4), human breast epithelial cell line M10 (6×10^3), human cancer cell line A549 (1.4×10^3), and murine colorectal carcinoma tumors CT26 (6×10^3), which were seeded in a 96-well plate. […] After 72 h, MTT assay (Cayman™) was used to determine the cellular viability.
# MDA-MB-453 cells = assay: In vitro cytotoxicity assay (MTT, 72 h); type: cell-based; details: Homo sapiens, growth inhibition
# Description: as §3
# A549 cells = assay: In vitro cytotoxicity assay (MTT, 72 h); type: cell-based; details: Homo sapiens, growth inhibition
# Description: as §3
# SW48 cells = assay: In vitro cytotoxicity assay (MTT, 72 h); type: cell-based; details: Homo sapiens, growth inhibition
# Description: as §3
# M10 cells = assay: In vitro cytotoxicity assay (MTT, 72 h); type: cell-based; details: growth inhibition, human normal cell line
# Description: as §3
# FRK (PTK5) = FRK (PTK5) (Homo sapiens, UniProt P42685); assay: Tyrosine kinase inhibition assay; type: biochemical; details: for inhibition at 1 µM: single concentration 1.0 μM, read-out: percent inhibition; for IC50: read-out: IC50 of compound
# Description: as §1
# (§4) The inhibition activities of compounds were determined in biochemical assays using single concentration (1.0 μM) measurements. The results were provided as percent inhibition values.
# RET = RET (Homo sapiens, UniProt P07949); assay: Tyrosine kinase inhibition assay; type: biochemical; details: for inhibition at 1 µM: single concentration 1.0 μM, read-out: percent inhibition
# Description: as §1, §4
# INSRR (IRR) = INSRR (IRR) (Homo sapiens, UniProt P14616); assay: Tyrosine kinase inhibition assay; type: biochemical; details: for IC50: read-out: IC50 of compound; for inhibition at 1 µM: single concentration 1.0 μM, read-out: percent inhibition
# INSRR (IRR), sequence (P14616 27-1297): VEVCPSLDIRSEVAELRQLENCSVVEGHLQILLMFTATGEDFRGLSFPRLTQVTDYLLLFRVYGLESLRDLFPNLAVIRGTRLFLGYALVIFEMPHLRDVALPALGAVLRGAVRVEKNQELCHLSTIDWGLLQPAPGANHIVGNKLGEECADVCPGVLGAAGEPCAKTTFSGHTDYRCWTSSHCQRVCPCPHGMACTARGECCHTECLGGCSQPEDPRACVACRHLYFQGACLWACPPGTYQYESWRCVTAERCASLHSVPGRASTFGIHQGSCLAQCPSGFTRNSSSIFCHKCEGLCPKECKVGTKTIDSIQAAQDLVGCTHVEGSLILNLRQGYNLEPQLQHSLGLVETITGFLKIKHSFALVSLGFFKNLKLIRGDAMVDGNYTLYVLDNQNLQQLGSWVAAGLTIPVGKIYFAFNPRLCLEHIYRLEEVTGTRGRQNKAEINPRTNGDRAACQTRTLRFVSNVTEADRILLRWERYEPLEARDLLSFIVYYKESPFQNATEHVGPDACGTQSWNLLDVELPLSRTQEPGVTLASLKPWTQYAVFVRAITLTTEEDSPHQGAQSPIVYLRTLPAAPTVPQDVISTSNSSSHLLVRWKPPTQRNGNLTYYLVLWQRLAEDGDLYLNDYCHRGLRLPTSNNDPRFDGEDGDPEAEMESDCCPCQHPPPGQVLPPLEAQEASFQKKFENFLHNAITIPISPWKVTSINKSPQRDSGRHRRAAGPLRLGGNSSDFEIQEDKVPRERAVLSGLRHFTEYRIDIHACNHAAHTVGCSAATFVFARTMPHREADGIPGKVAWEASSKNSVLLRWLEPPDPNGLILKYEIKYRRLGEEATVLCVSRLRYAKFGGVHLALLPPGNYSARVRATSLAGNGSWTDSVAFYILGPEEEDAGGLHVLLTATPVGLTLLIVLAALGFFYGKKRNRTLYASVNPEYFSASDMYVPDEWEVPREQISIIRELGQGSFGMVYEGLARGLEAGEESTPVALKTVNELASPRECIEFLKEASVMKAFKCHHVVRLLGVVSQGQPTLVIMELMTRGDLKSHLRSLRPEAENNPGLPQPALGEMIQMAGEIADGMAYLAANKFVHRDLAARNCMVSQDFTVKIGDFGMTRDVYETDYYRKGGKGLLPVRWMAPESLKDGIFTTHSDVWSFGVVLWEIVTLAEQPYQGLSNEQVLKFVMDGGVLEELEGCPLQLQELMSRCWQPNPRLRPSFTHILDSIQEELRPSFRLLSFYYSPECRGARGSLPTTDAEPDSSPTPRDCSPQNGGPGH
# Description: as §1
# (§5) The inhibition activities of compounds were determined in biochemical assays using single concentration (1.0 μM) measurements. The results were provided as percent inhibition values. A compound displaying a percent inhibition value of greater 80% was defined as a hit. 99 different tyrosine kinases were used.
# EPHA2 = EPHA2 (Homo sapiens, UniProt P29317); assay: Tyrosine kinase inhibition assay; type: biochemical; details: for IC50: read-out: IC50 of compound; for inhibition at 1 µM: single concentration 1.0 μM, read-out: percent inhibition
# Description: as §1, §5
# LYN A = LYN A (Homo sapiens, UniProt P07948); assay: Tyrosine kinase inhibition assay; type: biochemical; details: for IC50: read-out: IC50 of compound; for inhibition at 1 µM: single concentration 1.0 μM, read-out: percent inhibition
# Description: as §1, §5
# LYN B = LYN B (Homo sapiens, UniProt P07948); assay: Tyrosine kinase inhibition assay; type: biochemical; details: for inhibition at 1 µM: single concentration 1.0 μM, read-out: percent inhibition
# Description: as §1, §5
# ROS1 = ROS1 (Homo sapiens, UniProt P08922); assay: Tyrosine kinase inhibition assay; type: biochemical; details: for IC50: read-out: IC50 of compound; for inhibition at 1 µM: single concentration 1.0 μM, read-out: percent inhibition
# Description: as §1, §5
# FER = FER (Homo sapiens, UniProt P16591); assay: Tyrosine kinase inhibition assay; type: biochemical; details: for IC50: read-out: IC50 of compound; for inhibition at 1 µM: single concentration 1.0 μM, read-out: percent inhibition
# FER, sequence (P16591 whole entry): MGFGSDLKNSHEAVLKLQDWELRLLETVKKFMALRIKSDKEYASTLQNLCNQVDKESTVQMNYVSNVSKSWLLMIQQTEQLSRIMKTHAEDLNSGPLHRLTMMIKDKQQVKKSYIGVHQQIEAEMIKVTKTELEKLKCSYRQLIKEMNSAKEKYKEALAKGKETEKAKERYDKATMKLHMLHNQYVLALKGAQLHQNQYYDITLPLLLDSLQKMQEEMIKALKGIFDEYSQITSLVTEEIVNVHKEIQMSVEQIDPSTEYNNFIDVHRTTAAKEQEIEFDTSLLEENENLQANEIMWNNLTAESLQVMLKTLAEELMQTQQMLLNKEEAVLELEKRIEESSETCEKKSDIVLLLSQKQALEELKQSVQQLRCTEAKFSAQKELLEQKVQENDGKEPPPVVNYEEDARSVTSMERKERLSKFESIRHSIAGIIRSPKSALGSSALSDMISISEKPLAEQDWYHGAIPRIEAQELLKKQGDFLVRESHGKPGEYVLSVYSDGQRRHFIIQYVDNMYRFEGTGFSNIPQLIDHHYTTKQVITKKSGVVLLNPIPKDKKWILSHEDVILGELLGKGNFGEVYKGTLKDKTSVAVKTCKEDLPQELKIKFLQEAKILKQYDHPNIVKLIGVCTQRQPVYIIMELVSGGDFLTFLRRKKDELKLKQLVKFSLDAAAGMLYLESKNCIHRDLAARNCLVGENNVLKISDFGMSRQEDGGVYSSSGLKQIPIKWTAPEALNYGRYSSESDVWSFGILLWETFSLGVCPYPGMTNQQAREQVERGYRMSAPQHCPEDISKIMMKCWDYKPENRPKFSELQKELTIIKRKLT
# Description: as §1, §5
# FGR = FGR (Homo sapiens, UniProt P09769); assay: Tyrosine kinase inhibition assay; type: biochemical; details: for IC50: read-out: IC50 of compound; for inhibition at 1 µM: single concentration 1.0 μM, read-out: percent inhibition
# Description: as §1, §5
# PDGFRA (PDGFR alpha) = PDGFRA (PDGFR alpha) (Homo sapiens, UniProt P16234); assay: Tyrosine kinase inhibition assay; type: biochemical; details: for IC50: read-out: IC50 of compound; for inhibition at 1 µM: single concentration 1.0 μM, read-out: percent inhibition
# PDGFRA (PDGFR alpha), sequence (P16234 24-1089): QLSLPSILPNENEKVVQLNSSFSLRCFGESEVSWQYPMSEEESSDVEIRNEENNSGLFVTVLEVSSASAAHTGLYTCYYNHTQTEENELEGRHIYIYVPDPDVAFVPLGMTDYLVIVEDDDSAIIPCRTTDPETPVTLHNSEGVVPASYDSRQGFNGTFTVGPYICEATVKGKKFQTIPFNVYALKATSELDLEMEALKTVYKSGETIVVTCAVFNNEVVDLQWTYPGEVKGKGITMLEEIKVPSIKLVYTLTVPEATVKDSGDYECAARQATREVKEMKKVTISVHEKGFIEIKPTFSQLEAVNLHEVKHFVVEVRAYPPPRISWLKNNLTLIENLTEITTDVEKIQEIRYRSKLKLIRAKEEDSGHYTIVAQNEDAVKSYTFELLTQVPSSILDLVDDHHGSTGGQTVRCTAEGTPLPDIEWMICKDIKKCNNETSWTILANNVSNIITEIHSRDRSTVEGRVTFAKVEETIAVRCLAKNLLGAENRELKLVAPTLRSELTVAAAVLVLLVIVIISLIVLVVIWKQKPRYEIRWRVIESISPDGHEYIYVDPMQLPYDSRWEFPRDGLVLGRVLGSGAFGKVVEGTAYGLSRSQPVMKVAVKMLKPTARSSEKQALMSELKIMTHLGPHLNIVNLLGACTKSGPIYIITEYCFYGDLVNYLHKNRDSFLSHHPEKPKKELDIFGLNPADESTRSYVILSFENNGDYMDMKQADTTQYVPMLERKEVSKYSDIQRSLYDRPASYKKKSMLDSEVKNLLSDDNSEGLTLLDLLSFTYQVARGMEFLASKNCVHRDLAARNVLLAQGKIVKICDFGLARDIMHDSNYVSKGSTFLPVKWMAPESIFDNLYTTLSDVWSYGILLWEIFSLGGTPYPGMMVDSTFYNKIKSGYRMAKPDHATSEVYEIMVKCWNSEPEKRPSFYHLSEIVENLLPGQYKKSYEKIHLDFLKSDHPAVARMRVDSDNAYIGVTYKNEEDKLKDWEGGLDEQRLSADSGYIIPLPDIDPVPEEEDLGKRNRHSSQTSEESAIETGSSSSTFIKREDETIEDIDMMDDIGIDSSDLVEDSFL
# Description: as §1, §5
# SRC = SRC (Homo sapiens, UniProt P12931); assay: Tyrosine kinase inhibition assay; type: biochemical; details: for IC50: read-out: IC50 of compound; for inhibition at 1 µM: single concentration 1.0 μM, read-out: percent inhibition
# Description: as §1, §5
# BTK = BTK (Homo sapiens, UniProt Q06187); assay: Tyrosine kinase inhibition assay; type: biochemical; details: for IC50: read-out: IC50 of compound; for inhibition at 1 µM: single concentration 1.0 μM, read-out: percent inhibition
# BTK, sequence (Q06187 whole entry): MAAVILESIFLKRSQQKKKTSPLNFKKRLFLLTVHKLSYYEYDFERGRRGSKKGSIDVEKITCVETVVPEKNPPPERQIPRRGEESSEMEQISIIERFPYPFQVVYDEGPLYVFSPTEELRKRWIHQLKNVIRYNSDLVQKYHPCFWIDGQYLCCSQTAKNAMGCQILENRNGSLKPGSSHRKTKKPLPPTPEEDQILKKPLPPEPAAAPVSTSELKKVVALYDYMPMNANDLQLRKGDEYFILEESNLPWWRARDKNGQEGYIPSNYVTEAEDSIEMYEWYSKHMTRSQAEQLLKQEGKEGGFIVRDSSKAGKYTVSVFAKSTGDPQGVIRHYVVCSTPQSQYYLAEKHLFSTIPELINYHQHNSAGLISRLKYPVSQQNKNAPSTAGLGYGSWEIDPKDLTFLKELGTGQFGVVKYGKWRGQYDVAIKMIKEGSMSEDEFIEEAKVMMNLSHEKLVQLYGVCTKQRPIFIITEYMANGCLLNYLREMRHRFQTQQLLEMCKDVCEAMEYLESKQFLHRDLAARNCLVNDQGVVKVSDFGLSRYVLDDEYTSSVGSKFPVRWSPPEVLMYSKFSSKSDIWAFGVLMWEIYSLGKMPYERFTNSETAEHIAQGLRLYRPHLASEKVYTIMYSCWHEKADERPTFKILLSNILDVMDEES
# Description: as §1, §5
# HCK = HCK (Homo sapiens, UniProt P08631); assay: Tyrosine kinase inhibition assay; type: biochemical; details: for IC50: read-out: IC50 of compound; for inhibition at 1 µM: single concentration 1.0 μM, read-out: percent inhibition
# Description: as §1, §5
# FLT4 (VEGFR3) = FLT4 (VEGFR3) (Homo sapiens, UniProt P35916); assay: Tyrosine kinase inhibition assay; type: biochemical; details: for IC50: read-out: IC50 of compound; for inhibition at 1 µM: single concentration 1.0 μM, read-out: percent inhibition
# Description: as §1, §5
# ABL1 = ABL1 (Homo sapiens, UniProt P00519); assay: Tyrosine kinase inhibition assay; type: biochemical; details: single concentration 1.0 μM, read-out: percent inhibition
# ABL1, sequence (P00519 whole entry): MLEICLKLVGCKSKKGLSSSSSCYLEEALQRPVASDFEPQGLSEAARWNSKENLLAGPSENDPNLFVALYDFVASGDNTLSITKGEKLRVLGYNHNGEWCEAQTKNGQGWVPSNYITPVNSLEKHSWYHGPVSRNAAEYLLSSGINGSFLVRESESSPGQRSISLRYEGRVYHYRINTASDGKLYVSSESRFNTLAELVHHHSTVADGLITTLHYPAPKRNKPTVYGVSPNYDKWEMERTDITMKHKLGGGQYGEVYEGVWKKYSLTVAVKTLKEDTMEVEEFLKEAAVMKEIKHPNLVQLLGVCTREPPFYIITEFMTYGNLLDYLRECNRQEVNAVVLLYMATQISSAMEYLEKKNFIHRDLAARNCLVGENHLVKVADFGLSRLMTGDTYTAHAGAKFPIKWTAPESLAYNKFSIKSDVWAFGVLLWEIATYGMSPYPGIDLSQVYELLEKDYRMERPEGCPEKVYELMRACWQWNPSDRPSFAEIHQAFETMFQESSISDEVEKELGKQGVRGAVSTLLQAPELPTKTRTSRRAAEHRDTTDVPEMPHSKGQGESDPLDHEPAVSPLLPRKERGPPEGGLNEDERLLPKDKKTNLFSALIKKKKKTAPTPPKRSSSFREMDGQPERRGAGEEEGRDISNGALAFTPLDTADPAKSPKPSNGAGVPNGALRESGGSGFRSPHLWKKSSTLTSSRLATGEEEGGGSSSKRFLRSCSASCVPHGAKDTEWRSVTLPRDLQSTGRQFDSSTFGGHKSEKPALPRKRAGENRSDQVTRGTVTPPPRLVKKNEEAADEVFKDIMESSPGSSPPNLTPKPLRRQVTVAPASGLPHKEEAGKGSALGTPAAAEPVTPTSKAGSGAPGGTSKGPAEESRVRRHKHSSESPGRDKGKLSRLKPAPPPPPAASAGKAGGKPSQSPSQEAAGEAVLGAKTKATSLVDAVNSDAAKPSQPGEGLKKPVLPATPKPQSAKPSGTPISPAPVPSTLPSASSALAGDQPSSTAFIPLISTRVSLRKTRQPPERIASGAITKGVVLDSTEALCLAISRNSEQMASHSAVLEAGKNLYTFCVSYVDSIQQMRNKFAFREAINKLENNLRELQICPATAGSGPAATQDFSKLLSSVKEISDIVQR
# Description: as §1, §2
# [1] = LYN B, read-out: IC50 of compound
Compound,inhibition at 1 µM (FLT1 (VEGFR1)),inhibition at 1 µM (EGFR (ErbB1)),IC50 (MDA-MB-231 cells),IC50 (MDA-MB-453 cells),IC50 (A549 cells),IC50 (SW48 cells),IC50 (M10 cells),inhibition at 1 µM (FRK (PTK5)),inhibition at 1 µM (RET),inhibition at 1 µM (INSRR (IRR)),inhibition at 1 µM (EPHA2),inhibition at 1 µM (LYN A),inhibition at 1 µM (LYN B; LYN B),inhibition at 1 µM (ROS1),inhibition at 1 µM (FER),inhibition at 1 µM (FGR),inhibition at 1 µM (PDGFRA (PDGFR alpha)),inhibition at 1 µM (SRC),inhibition at 1 µM (BTK),inhibition at 1 µM (HCK),also measured
"COc1cc2nccc(Oc3ccc(NC(=O)C4(C(=O)Nc5ccc(F)cc5)CC4)cc3)c2cc1OC [Cabozantinib, reference compound]",67%,32%,8720 ± 1080 nM,20500 ± 4480 nM,4050 ± 460 nM,4330 ± 330 nM,9570 ± 1620 nM,99%,98%,38%,95%,92%,91%,87%,89%,97%,92%,89%,82%,90%,IC50 (INSRR (IRR)): 386 nM; IC50 (EPHA2): 37.7 nM; IC50 (LYN A): 217 nM; IC50 (LYN B): 67.7 nM; IC50 (ROS1): 60.6 nM; IC50 (FER): 424 nM; IC50 (FGR): 88.8 nM; IC50 (PDGFRA (PDGFR alpha)): 84.1 nM; IC50 (SRC): 141 nM; IC50 (BTK): 172 nM; IC50 (HCK): 111 nM; IC50 (FLT4 (VEGFR3)): 30.3 nM; inhibition at 1 µM (FLT4 (VEGFR3)): 95%
"COc1cc2nccc(Oc3ccc(NC(=O)C4(NC(=O)c5ccc(F)cc5)CC4)cc3F)c2cc1OC [Cbo-02, N-(1-((4-((6,7-diMethoxyquinolin-4-yl)oxy)-3-fluorophenyl)carbamoyl)cyclopropyl)-4-fluorobenzamide]",30%,44%,5640 ± 360 nM,5310 ± 570 nM,1510 ± 57 nM,820 ± 11 nM,3920 ± 250 nM,59%,67%,80%,33%,71%,81%,56%,88%,74%,48%,42%,98%,62%,inhibition at 1 µM (ABL1): 24%; inhibition at 1 µM (FLT4 (VEGFR3)): 79%
COc1cc2nccc(Oc3ccc(NC(=O)C4(NC(=O)c5ccc(F)cc5)CC4)cc3F)c2cc1Oc1ccc(N)cc1F [Cbo-10],61%,88%,2450 ± 140 nM,4670 ± 280 nM,1180 ± 36 nM,790 ± 1 nM,911 ± 25 nM,91%,79%,93%,56%,81%,86%,95%,97%,92%,84%,86%,102%,72%,inhibition at 1 µM (ABL1): 32%; inhibition at 1 µM (FLT4 (VEGFR3)): 92%
COc1cc2nccc(Oc3ccc(NC(=O)C4(NC(=O)c5ccc(F)cc5)CC4)cc3F)c2cc1Oc1c(F)cc(N)cc1F [Cbo-14],62%,89%,14400 ± 5300 nM,2680 ± 750 nM,1230 ± 34 nM,790 ± 1 nM,920 ± 8 nM,100%,89%,93%,61%,86%,87%,97%,99%,92%,94%,86%,101%,74%,inhibition at 1 µM (ABL1): 44%; inhibition at 1 µM (FLT4 (VEGFR3)): 92%
COc1cc2nccc(Oc3ccc(NC(=O)C4(C(=O)Nc5ccc(F)cc5)CC4)cc3F)c2cc1Oc1ccc(N)cc1F [Cbo-23],76%,58%,1950 ± 1950 nM,1710 ± 140 nM,1690 ± 130 nM,790 ± 5 nM,1010 ± 20 nM,99%,101%,97%,102%,92%,96%,100%,101%,97%,95%,94%,101%,99%,inhibition at 1 µM (ABL1): 58%; IC50 (FRK (PTK5)): 27 nM; IC50 (INSRR (IRR)): 53.4 nM; IC50 (EPHA2): 20.9 nM; IC50 (LYN A): 53.1 nM; IC50 (LYN B; [1]): 18.8 nM; IC50 (ROS1): 5.87 nM; IC50 (FER): 24.7 nM; IC50 (FGR): 25.3 nM; IC50 (PDGFRA (PDGFR alpha)): 36.9 nM; IC50 (SRC): 32.1 nM; IC50 (BTK): 9.01 nM; IC50 (HCK): 21.4 nM; IC50 (FLT4 (VEGFR3)): 20.8 nM; inhibition at 1 µM (FLT4 (VEGFR3)): 99%
"CNC(=O)c1cc2c(Oc3ccc(NC(=O)C4(C(=O)Nc5ccc(F)cc5)CC4)cc3)ccnc2cc1OC [Zanzalintinib, reference compound]",,,6170 ± 150 nM,22600 ± 1050 nM,7580 ± 180 nM,6860 ± 260 nM,3280 ± 1840 nM,,,,,,,,,,,,,,IC50 (FRK (PTK5)): 10.3 nM; IC50 (RET; read-out: IC50 of compound): 22.5 nM; IC50 (INSRR (IRR)): 302 nM; IC50 (EPHA2): 52.2 nM; IC50 (LYN A): 70.9 nM; IC50 (LYN B; [1]): 30.7 nM; IC50 (ROS1): 71.4 nM; IC50 (FER): 266 nM; IC50 (FGR): 35.4 nM; IC50 (PDGFRA (PDGFR alpha)): 93.9 nM; IC50 (SRC): 45.1 nM; IC50 (BTK): 111 nM; IC50 (HCK): 59 nM; IC50 (FLT4 (VEGFR3)): 21.7 nM
